What is called IC50 is the concentration that inhibits the measured activity by half. Low readings indicate higher potency, high ones lower potency.

Holding throughout (type): cell-based, human
The test system of series [1] is UBE3A-AS. Nature of the series: UBE3A-AS steady state RNA (TaqMan qRT-PCR) in GABAergic iPSC-derived neurons. To be noted: for Relative Potency: relative to ASO-4.4.PS.L = 1. Background: In qPCR the cycle at which signal appears reflects the starting amount.
The test system of series [2] is SNORD116 host-gene transcript (SNHG116). Put plainly: RNA-sequencing of Angelman syndrome iPSC neurons: SNHG116. To be noted: 30 μM; six days post-treatment; RNA-seq. On the procedure:
(§1) RNA was isolated using Qiagen RNAeasy Plus (74136, Qiagen, Hilden, Germany). RNA concentration was determined using Qubit Fluorometric Quantitation (Thermo Fisher Scientific) and RNA quality was assessed using a 4200 Agilent TapeStation (Agilent, Santa Clara, Calif.). RNA-sequencing libraries were generated using the Illumina TruSeq Stranded Total RNA kit (20020597, Illumina, Inc., San Diego, Calif.) according to the manufacturer's protocol. 75 base-pair paired-end sequencing was performed using a NextSeq 500 (IIlumina, San Diego, Calif.) at the Texas A&M Institute for Genome Sciences and Society Genomics core. Raw sequencing reads were processed using CASAVA. The resulting FASTQ sequences were examined using FASTQC. […]
(§2) To determine whether ASO-4.4.PS.L and ASO-6.1.PO-1.O affect the levels of RNA transcripts encoded by the PWS polycistronic transcript, RNA-sequencing was performed on AS iPS cells treated with each ASO and the steady state RNA levels of SNURF, SNRPN, the SNORD116 host-gene transcript (SNHG116), the SNORD116 snoRNAs, IPW, the SNORD115 host-gene transcript (SNHG115), the SNORD115 snoRNAs, and UBE3A-AS were quantified. UBE3A steady state RNA levels were also measured. […]

Series [3] has as its system SNORD116 snoRNAs. Put plainly: RNA-sequencing of Angelman syndrome iPSC neurons: SNORD116 snoRNAs. To be noted: 30 μM; six days post-treatment; RNA-seq. Here is the method:
as §1, §2

In series [4] the test system is SNORD115 host-gene transcript (SNHG115). Nature of the series: RNA-sequencing of Angelman syndrome iPSC neurons: SNHG115. The note with it: 30 μM, six days post-treatment, RNA-seq. On the procedure:
as §1, §2

Series [5] has as its system UBE3A. Put plainly: UBE3A steady state RNA (qRT-PCR) in GABAergic iPSC-derived neurons. The note with it: 10-point dose curve 1 nM-30 μM; 14 DIV to 20 DIV.
[6] abbreviates: Cluster 1 ASOs, 18 DIV to 24 DIV, parallel model, 4 Parameter logistic (Hill).
Setting [7] is: candidate ASOs, 18 DIV to 24 DIV.
[8] abbreviates: candidate ASOs, 18 DIV to 24 DIV, 4-parameter logistic (Hill).
The mark [9] stands for this setting: candidate ASOs, treated 18 DIV, RNA 24 DIV, 10-point dose curve, n=2, full model, 4-parameter logistic (Hill).

With “A^L*G^L*A^L*a*t*g*g*c*a*c*a*t*c*t*5mC^L*T^L*T^L*G^L (NNNATGGCACATCTNNNN; LNA gapmer, PS, 5-methylcytosine, chemistry not fully specified) [ASO-4.4.PS.L]”, the IC50 in series [1] (setting [6]) stood at 50.3 nM; in series [1] (setting [9]), 26.6 nM. Also, in series [1] (Cluster 1 ASOs, parallel model), the “Relative Potency” value worked out at 1. The “30 μM (Mean), normalized UBE3A-AS RNA level relative to vehicle” value in series [1] (setting [7]) worked out at 0.05. In addition, the “Emax (normalized UBE3A-AS RNA level relative to vehicle)” value in series [1] (setting [8]) is on record as 0.0. Further, the “Difference, SNHG116 RNA level relative to vehicle” value in series [2] was −0.24. In addition, in series [3], the “Difference, SNORD116 RNA level relative to vehicle” value was 0.27.
As for “C^O*U^O*G^O*G^O-t*g*t*c*a*a*c*a*a*g-C^O*C^O*A^O*A^o [ASO-6.1.PO-1.O]”, the IC50 in series [1] (setting [6]) amounted to 199 nM; in series [1] (setting [9]) it was 315 nM. Further, the “IC50 Ratio relative to ASO-4.4.PS.L” value in series [1] (Cluster 1 ASOs, equivalence, two one-sided tests) is 0.86. Also, in series [1] (Cluster 1 ASOs, parallel model), the “Relative Potency” value worked out at 0.3. For the same molecule, the “Limit Exceeded (equivalence of IC50 relative to ASO-4.4.PS.L)” value in series [1] (Cluster 1 ASOs, two one-sided tests) is reported as “Lower”. For the same molecule, the “30 μM (Mean), normalized UBE3A-AS RNA level relative to vehicle” value in series [1] (setting [7]) is reported as 0.04. In series [1] (setting [8]), the “Emax (normalized UBE3A-AS RNA level relative to vehicle)” value is on record as −0.1. Besides, the “Difference, SNH115G RNA level relative to vehicle” value in series [4] was “significantly reduced”; in series [4] (listed as ASO-6.1.PS-1.O), −0.55. In addition, the “Difference, SNHG116 RNA level relative to vehicle” value in series [2] is listed as −0.07. Further, the “Difference, SNORD116 RNA level relative to vehicle” value in series [3] is on record as −0.04.
For `CC[C@@]1(O)C(=O)OCc2c1cc1n(c2=O)Cc2cc3c(CN(C)C)c(O)ccc3nc2-1` [Topotecan, reference compound], the “effect on total UBE3A RNA levels (in words)” value in series [5] was “increased total UBE3A RNA levels in a dose-dependent manner, except for Topotecan at higher concentrations”.
On to “U^O*A^O*G^O*A^O*A^O*t*g*g*c*a*c*a*t*c*t*C^O*U^O*U^O*G^O*G^O [ASO-4]”, for which the “effect on total UBE3A RNA levels (in words)” value in series [5] is reported as “increased total UBE3A RNA levels in a dose-dependent manner”.

The values are drawn from patent US11198869B2, “Angelman syndrome antisense treatment” (The Texas A&M University System, priority 2017, dated 2021).
